# Several values for one entry are separate records, joined by “and”; a condition that tells them apart may be missing. Equal values may be shown once.
# How the values were obtained:
# Herpesvirus simplex [1] = assay: Example 3: protocol of Example 2 with two batches of 52 animals; format: in vivo, mice
# Experimental: (§1) A test similar to the one described in Example 1 was carried out using two groups of 17 mice, one Herpesvirus simplex batch having a titer of 2×10^2 PFU/ml, by inoculating a Bardac® dose of 0.018 mg by injection (that is to say a daily-dose of 0.036 mg) and following the protocol below: on day D0, Bardac® is injected and, 12 hours later, nasal instillation of the virus is carried out, followed by intraperitoneal injections of Bardac® every twelve hours. Monitoring was carried out twice per day for six days.
# (§2) At the end of the monitoring period, the lungs of the animals in the two groups were collected for culturing, in order to detect the presence of the virus. Detection of the virus is carried out as follows: the lung is homogenized in a DOUNCE® mixer and then suspended in a sterile test tube and centrifuged for 10 minutes at 2000 rpm. If the sample is not analyzed immediately, it is stored at −80° C. The infectious titer of the lung is given by titrating the virions present in 0.3 ml of centrifugation supernatant and multiplying the number of PFU by ten.
# The protocol followed is identical to that of Example 2 with two batches of 52 animals.
# Herpesvirus simplex [2] = assay: Example 2: Herpes simplex nasal infection of mice, Bardac intraperitoneal, 6-day monitoring and lung infectious titer; format: in vivo
# Experimental: as §1, §2
# [3] = mouse, according to the manufacturer (LONZA); cited from earlier work
# Herpesvirus simplex [4] = assay: Example 1: Herpes simplex nasal infection of Nude mice, Bardac intraperitoneal, 14-day monitoring; format: in vivo, nu/nu Nude mice; conditions: 0.025 mg i.p. twice a day
# Excerpt: Three-week-old female nu/nu Nude mice, having an average weight of 6 to 8 g, divided into two batches of 20 animals, a control group receiving only the virus (curve -x- in FIG. 1), and one group being treated with Bardac® (curve -●- in FIG. 1).
# Herpesvirus simplex batch having a titer of 10′ PFU (Plaque Forming Units)/ml.
# Didecyldimethylammonium chloride (Bardac®) provided by the Swiss company Lonza and used in the form of a dilution in an isotonic saline solution.
# Inoculation of the virus: 30 μl by the nasal route of pure viral suspension, which corresponds to an installation of about 10^4 PFU (viral load). The inoculation is carried out according to the protocol described by KERN et al. in Antiviral Res., 1986, 6, 189-195. One mouse died during the nasal instillation.
# Bardac®: inoculation by the intraperitoneal route, twice a day of a dose of 0.025 mg of the product by injection, i.e. a daily dose of 0.050 mg. According to the manufacturer (LONZA), the LD50 by the intravenous route is about 0.20 mg/10 g of mouse.
# On day D0, Bardac® is injected in the morning, and 4 hours later nasal instillation of the virus is carried out, followed 6 hours later by the second injection of Bardac®; on the following days, the injections were carried out around 9 am and 5 pm.
smiles,measurement,setting,value
"CCCCCCCCCC[N+](C)(C)CCCCCCCCCC.[Cl-] [Bardac®, didecyldimethylammonium chloride]","infectious titer in the lung, individual infected treated mouse",Herpesvirus simplex [1]; mouse alive at D6,> 1000 PFU (2×) and 20 PFU (2×) and 120 PFU and 250 PFU and 80 PFU
same,"infectious titer in the lung, individual infected treated mouse",Herpesvirus simplex [1]; mouse dead at D3,> 1000 PFU and 50 PFU
same,"infectious titer in the lung, individual infected treated mouse",Herpesvirus simplex [1]; mouse dead at D5,300 PFU and 160 PFU and 50 PFU and 40 PFU
same,total infectious titer,"Herpesvirus simplex [1]; sum over the 13 infected treated mice, control >11930",>4100 PFU
same,factor by which the infectious titer (in PFU) is reduced,"Herpesvirus simplex [1]; treated animals versus control group, overall",3
same,number of live mice on the sixth day,"Herpesvirus simplex [1]; treated group of 52 mice, control 22",39
same,number of mice infected with the virus,"Herpesvirus simplex [1]; treated group of 52 mice, control 37",13
same,percentage of survivors on the sixth day,"Herpesvirus simplex [1]; treated group of 52 mice, control 42%",75%
same,percentage of mice infected with the virus,"Herpesvirus simplex [1]; treated group of 52 mice, control 71%",25%
same,"infectious titer in the lung, individual treated mouse",Herpesvirus simplex [2]; mouse alive at D6,0 PFU (7×) and 20 PFU (2×) and 100 PFU
same,"infectious titer in the lung, individual treated mouse",Herpesvirus simplex [2]; mouse dead at D5,0 PFU
same,"infectious titer in the lung, individual treated mouse",Herpesvirus simplex [2]; mouse dead at D6,0 PFU (2×) and 20 PFU and 150 PFU and 50 PFU and 200 PFU
same,total infectious titer in the lungs,"Herpesvirus simplex [2]; sum over the 17 treated mice, control >3200",560 PFU
same,percentage of survivals on day D6,"Herpesvirus simplex [2]; treated group of 17 mice, 0.018 mg i.p. every twelve hours, control 29%",59%
same,mice alive on day D6,"Herpesvirus simplex [2]; treated group of 17 mice, 0.018 mg i.p. every twelve hours, control five",ten
same,number of infected mice,"Herpesvirus simplex [2]; treated group of 17 mice, control 15",7
same,percentage of mice infected,"Herpesvirus simplex [2]; treated group of 17 mice, control 88%",41%
same,effect on mortality and infectious titer (in words),Herpesvirus simplex [2]; treated group versus control group,less affected by the virus
same,LD50 by the intravenous route,[3],about 0.20 mg/10 g of mouse
same,percentage of survivals,"Herpesvirus simplex [4]; treated group of 20 mice, about 10^4 PFU nasal, 14 days monitoring, control 10%",45%
same,average duration of the disease,"Herpesvirus simplex [4]; treated group, control 8.5 days",9.2 days

# From US6689814B1, “Use of dialkyldialkylammonium halide for the preparation of a virucidal medicament intended to be administered by the systemic route” (priority 1998, dated 2004)
